Biological target: human ADRB2 (Homo sapiens, UniProt P07550)
Assay: Calcium mobilization assay
Format: cell-based
Settings: in words; for ADRB2 antagonist activity: Figure 4B

Chain of human ADRB2 (P07550 whole entry): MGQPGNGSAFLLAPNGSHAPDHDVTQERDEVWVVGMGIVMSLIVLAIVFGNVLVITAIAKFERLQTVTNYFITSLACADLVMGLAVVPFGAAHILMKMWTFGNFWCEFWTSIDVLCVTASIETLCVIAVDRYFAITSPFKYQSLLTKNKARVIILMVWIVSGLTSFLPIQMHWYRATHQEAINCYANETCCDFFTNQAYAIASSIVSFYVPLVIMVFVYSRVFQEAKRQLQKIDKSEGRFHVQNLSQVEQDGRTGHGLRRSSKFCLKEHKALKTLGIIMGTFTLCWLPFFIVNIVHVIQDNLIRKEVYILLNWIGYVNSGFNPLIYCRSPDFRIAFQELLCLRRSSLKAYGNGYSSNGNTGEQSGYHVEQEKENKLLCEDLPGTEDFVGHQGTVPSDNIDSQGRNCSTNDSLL

Row | Compound | ADRB2 agonist activity (Figure 4A) | ADRB2 antagonist activity
1 | Cc1ccc(-n2c(C)ccc2C)c2c1CC(C)(C)O2 [Compound 5, 2,5-Dimethyl-1-(2,2,4-trimethyl-2,3-dihydro-1-benzofuran-7-yl)-1H-pyrrole] | weak ADRB2 agonist activity | 
2 | Cc1cc2c(OCC(O)CNC(C)(C)C)cccc2[nH]1 (stereo not drawn) [Compound 8, 1-(tert-butylamino)-3-[(2-methyl-1H-indol-4-yl)oxy]-2-propanol, reference compound] |  | strong ADRB2 antagonist activity
3 | COCCCNCC(O)COc1cccc2[nH]c(C)cc12 (stereo not drawn) [Compound 33, 1-[(3-Methoxypropyl)amino]-3-[(2-methyl-1H-indol-4-yl)oxy]-2-propanol] |  | strong ADRB2 antagonist activity

From paper PMC3094066 (Molecular Systems Biology, 2011)
